Test results taken from patent publication US5885786A, “Methods for screening of substances for inhibition of multidrug resistance” (priority 1996, dated 1999).
Entries after “also recorded” stand apart in the source; their conditions may differ.

Tested on: MCF-7-AdrR cells
Test: Cell proliferation (MTS) assay: adriamycin toxicity and chemosensitization
Conditions: for effect on adriamycin toxicity / chemosensitization (in words): 5.0 μM tested drug + adriamycin, 72 h, FIG. 15A, 16B
Excerpt: FIG. 15A and FIG. 15B. […] FIG. 15B: Glycosylceramide levels in MDR Cells following drug treatment. […] In order to avoid differences in [^3 H]glycosylceramide values which account for cell death, the same amount of total radioactive lipid from each sample was applied to TLC separation.
FIG. 16A and FIG. 16B. […] FIG. 16A: Effect of PPMP on cellular glycosylceramide levels. […] [^3 H]Glycosylceramide was quantitated as described in the legend to FIG. 9.
Vehicle (acetone, ethanol) was always added to control (minus drug) wells. The cytotoxic activity of a drug was determined using the Promega CellTiter 96™ AQueous MTS cell proliferation assay kit. Each experimental point was performed in six replicates. MTS/PMS solution (20 μl/well) was aliquoted into all wells, and the cells were incubated for 2-3 h, or until an O.D. of 0.9-1.0 was obtained as a highest reading. Thereafter, absorbence at 490 nm was recorded using an ELISA plate reader (Molecular Devices, San Diego, Calif.).

CC/C(=C(\c1ccccc1)c1ccc(OCCN(C)C)cc1)c1ccccc1 [tamoxifen]
effect on adriamycin toxicity / chemosensitization (in words): shifted to lower concentrations; also recorded: very potent in cell killing | effect on adriamycin toxicity / chemosensitization (in words) (listed as Tamoxifen): potently sensitized | effect of the substance alone on cell survival (in words) (MCF-7-AdrR, alone): not toxic
